From article PMC10119930, “Dual Molecules Targeting 5-HT6 and GABA-A Receptors as a New Approach to Combat Depression Associated with Neuroinflammation” (ACS Chemical Neuroscience, 2023)
Where “and” joins values, the source holds several entries; their conditions need not be identical. Equal entries are not always repeated. Where two headings read alike, the source gives them in different places.

What was measured:
[1] = molecular target: T1, 5-HT6 receptor (Homo sapiens, UniProt P50406); assay: Radioligand binding assay for 5-HT6 receptor ([3H]-LSD displacement); design: expressed in transfected cells; host or cells: HEK-293 (cryopreserved membranes); details: for Ki: competitive replacement of [3H]-LSD, ±S.E.M.
Protocol: To determine the affinity for 5-HT6, the cryopreserved membranes from HEK-293 cells stably transfected with the human recombinant 5-HT6 receptor were used.[40] Preparation of the tested compounds included preparation of stock solutions in DMSO (1 mM) and subsequent serial dilutions (10^–10–10^–5 M) of tested compounds in the appropriate buffer (50 mM Tris buffer, pH 7.4, 10 mM MgCl2, 0.5 mM ethylenediaminetetraacetic acid). The serial dilutions were acquired directly on a 96-well microplate. The reaction mix included 50 μL of appropriate concentration of tested molecule, 50 μL of [^3H]LSD 2.5/2.0 nM, and 150 μL of diluted membranes. The microplate containing the reaction mix was protected with a sealing tape and incubated for 60 min at 37 °C. Quenching of the reaction mixtire included: rapid filtration through UniFilter 96 GF/B filter microplate and rapid washes using 200 μL 50 mM assay buffer and vacuum manifold and 96-well pipettor. The collected microplates were dried overnight at 37 °C. The UniFilter bottoms were sealed, and then 30 μL of Betaplate Scint liquid scintillator (PerkinElmer) was added to each well. […] The obtained data were fit to a one-site curve-fitting equation using Prism 5 software (GraphPad Software), and the Ki values were determined using the Cheng–Prusoff equation. Radioligand binding was performed in duplicates.

[2] = molecular target: muscimol site of the GABA-A receptor; assay: Radioligand binding assay for GABA-A receptor ([3H]muscimol displacement, rat brain homogenate); details: competitive replacement of [3H]muscimol; ±S.E.M.
Protocol: The study was acquired according to the earlier protocols.[39] The rats’ brains were homogenized and prepared accurately according to the previous protocol.[39] On the day of the study, brain homogenates were thawed at room temperature and “diluted” in 20 volumes of ice-cold 50 mM Tris-HCl buffer (pH 7.4) and centrifuged (20.000g, 30 min, 0–4 °C). The assay was performed directly on 96-well microplates, which contained 50 mM Tris-HCl buffer (pH 7.4) in a total volume of 300 μL. Reaction mix included 240 μL of the brain tissue suspension, 30 μL of [^3H]-muscimol, and 30 μL solution of tested compounds (administrated at various concentrations: 10^–10–10^–5 M). […] The 96-well microplates containing the reaction mix were incubated for 10 min at 0 °C, followed by rapid filtration over glass fiber filters FilterMate B (PerkinElmer, USA) using the Harvester-96 MACH III FM (Tomtec, USA). The filter mats were dried using a microwave and then placed inside a plastic bag (PerkinElmer, USA). After that, they were soaked in 10 mL of Ultima Gold MV liquid scintillation cocktail (PerkinElmer, USA). […] Ki values were estimated according to the Cheng and Prusoff equation. The study was performed in duplicates. The statistical analysis was performed using (GraphPad Prism, version 4.0, San Diego, CA, USA).

[3] = molecular target: T1, 5-HT6 receptor; assay: Functional assay for 5-HT6 receptor, antagonist mode (aequorin, CHO-K1 cells); assay type: cell-based; design: expressed in transfected cells; host or cells: CHO-K1 (co-expressing mitochondrially targeted aequorin and G protein α16); details: ±S.E.M., read-out: 5-HT6 R KB
Protocol: The studies were acquired according to previous protocols.[41] All the examined compounds (novel and the reference) were dissolved in DMSO (1 mM) and diluted accordingly using the assay buffer, directly in 96-well microplate. The recombinant CHO-K1 cells expressing human GPCR, mitochondrially targeted aequorin, and the promiscuous G protein α16 specific for 5-HT6 were used for the functional assay. The cells were thawed and suspended in the appropriate buffer containing DMEM/HAM’s F12 with 0.1% protease free BSA and were then centrifuged. After adding coelenterazine h to a final concentration of 5 μM, the cell pellet was resuspended in the buffer. The cell suspension was incubated at 16 °C for 16 h while being protected from light, gently shaken, and diluted with assay buffer to a concentration of 5000 cells/mL. Following that, 50 μL of the cell suspension was introduced to preloaded white opaque 96-well microplates containing the tested molecules. This was done using the automatic injectors integrated into the radiometric and luminescence plate counter MicroBeta2 LumiJET (PerkinElmer, USA). The light emission resulting from calcium mobilization was monitored for a duration of 60 s. For examination of the antagonistic properties of tested molecule, following 30 min of incubation, the reference agonist was administrated and the light emission was detected.

[4] = test system: human α1β2γ2-GABA-A receptors; assay: Electrophysiological studies, automated patch clamp (QPatch16X), HEK293 cells; assay type: cell-based; details: agonist mode, compound at 10 μM; current amplitude normalized to 10 μM GABA response; ±S.E.M.
Protocol: Electrophysiological studies were acquired using the QPatch16X automatic patch clamp platform (Sophion Biosciences) as described before.[42],[43] […] Before the assay, cells were detached from the culture flask by treating them with TrypLE Express solution (Life Technologies) and subsequently suspended in serum-free media. The cells were loaded into a 1.5 mL microtube on the automated electrophysiology instrument, which subsequently performed a spin-down using its built-in centrifuge. Following this, the cells were washed with Ringer’s extracellular solution. The cells were moved to the pipetting wells of a 16-channel planar patch chip plate (QPlate 16X) designed for single-use. A combined suction/voltage protocol was then applied to establish gigaseals. […] During the entire whole-cell recording, the holding potential was maintained at −90 mV. […] The intracellular solution contained 140 mM CsF, 1 mM EGTA, 5 mM CsOH, 10 mM HEPES, 20 mMNaCl (pH 7.2, 320 mOsm). […] The acquired data were examined with QPatch assay software (v5.0, Sophion Biosciences)[44] and are represented as the mean of three separated measurements performed on distinct cells. The efficacy of the tested molecules was determined by calculating the baseline-corrected ratio of the maximum current amplitudes elicited by the tested compounds and the reference agonist (T1-ATG/AG1-ATG or T2-ATG/AG1-ATG). The raw current recordings were standardized and presented as a percentage of the current amplitude evoked by the reference agonist, using the QPatch assay software (v5.0, Sophion Biosciences).

[5] = test system: female Wistar rats; assay: Forced swim test in rats; assay type: in vivo, rat
Protocol: (§1) Naïve female Wistar rats (weighing 180–200 g) were used in the study. The animals were housed in groups of three to four in standard Makrolon cages (37 cm × 21 cm × 15 cm) under strictly controlled laboratory conditions (ambient temperature 21–24 °C, relative humidity 45–65%) with a 12/12 h light–dark regime (light on at 6:00 a.m. and off at 6:00 p.m.). Animals had unrestricted access to tap water and food (typical pellets). Prior the experiment the animals were randomly appointed to the group. The behavioral studies were accomplished between 8:00 a.m. and 5:00 p.m. with the researcher blind to the study. The experiments were performed according to protocols approved by the Local Ethical Committee in Krakow (Approval Number 147/2018), Poland. Housing and experimental procedures were conducted under the European Union Directive of September 22, 2010 (2010/63/EU) and Polish legislation regarding animal studies. All efforts were made to minimize animal suffering and the number of animals used in the study.
(§2) Vortioxetine (Sigma, Germany) and the tested compounds (16 and 6) were dissolved in 10% cyclodextrin and administered ip 30 min before the test or during 14 consecutive days, with the last injection 60 min before the test. 10% cyclodextrin was administrated to control group.
(§3) A modified forced swim test was carried out according to Detke et al.[50],[51] First, the animals were individually placed inside Plexiglas cylinders, which were 40 cm high and 18 cm in diameter, filled with water at a temperature of 23–25 °C for 15 min. Afterward, the rats were transferred to a Plexiglas box and kept under a 60 W bulb for 30 min to dry. The day after, exactly 24 h later, the rats were once again placed in the cylinder, and their duration of immobility, swimming, and climbing was observed and recorded during a 5 min. The swimming behavior involved energetic movements such as horizontal swimming around the cylinder, while climbing activity referred to upward movements of the forepaws along the swim chamber’s side. Immobility was recorded when the rat only made necessary movements to keep its head above the water. For each test, a fresh water was provided. Open field test in rats: The test was conducted as previously reported by our research group.[52] The test was performed in a darkened room employing the Motor Monitor System (Campden Instruments, Ltd., U.K.). The system was equipped with two SmartFrame Open Field stations, each measuring 40 cm × 40 cm × 38 cm and consisting of 16 × 16 beams. These stations were placed inside sound-attenuating chambers and connected to a PC software using […]. The animals, belonging to either the vehicle-injected or drug-injected group, were individually positioned at the center of the station. The Motor Monitor System, which was automated, recorded the animal’s ambulation in both the X and Y axes, as well as the number of rearing and peeping episodes. Additionally, the total distance traveled by each animal during the 5 min test period was also recorded. Statistical analysis: Results are presented as the mean ± SEM values. They were estimated using one-way analysis of variance (ANOVA), followed by Newman–Keuls post hoc or unpaired two-tailed Student t test. Statistical significance was considered when p < 0.05 for differences between groups.

[6] = test system: female Wistar rats; assay: Open field test in rats (locomotor activity); assay type: in vivo, rat; design: total distance traveled: unit not given here; details: chronic treatment, dose 8, ip 14 days
Protocol: as §1, §2, §3

[7] = acute, 8 mg/kg ip 30 min before test

T1 sequence (P50406 whole entry): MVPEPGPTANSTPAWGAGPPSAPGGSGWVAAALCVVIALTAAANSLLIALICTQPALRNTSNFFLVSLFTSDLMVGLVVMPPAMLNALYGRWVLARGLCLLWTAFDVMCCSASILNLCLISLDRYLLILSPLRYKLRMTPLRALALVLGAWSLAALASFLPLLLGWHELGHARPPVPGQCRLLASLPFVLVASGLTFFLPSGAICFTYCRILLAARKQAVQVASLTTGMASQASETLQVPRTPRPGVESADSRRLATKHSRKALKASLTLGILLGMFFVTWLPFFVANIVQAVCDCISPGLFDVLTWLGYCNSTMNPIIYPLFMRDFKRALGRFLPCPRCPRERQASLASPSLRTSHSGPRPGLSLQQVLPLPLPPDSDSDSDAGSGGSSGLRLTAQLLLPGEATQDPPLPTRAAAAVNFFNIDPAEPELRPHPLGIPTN

## O=c1[nH]c2c(N3CCNCC3)cccc2n1Cc1ccccc1 [Compound 2, 1-benzyl-4-(piperazin-1-yl)-1,3-dihydro-2H-benzo[d]imidazol-2-one]
[1]; 5-HT6R Ki
  Ki: 0.2 ± 0.02 nM

## O=c1oc2c(N3CCNCC3)cccc2n1Cc1ccccc1 [Compound 3, 3-Benzyl-7-(piperazin-1-yl)benzo[d]oxazol-2(3H)-one]
[1]; 5-HT6R Ki
  Ki: 4 ± 0.2 nM

## O=C1COc2c(N3CCNCC3)cccc2N1Cc1ccccc1 [Compound 4, 4-benzyl-8-(piperazin-1-yl)-2H-benzo[b][1,4]oxazin-3(4H)-one]
[1]; 5-HT6R Ki
  Ki: 1 ± 0.2 nM

## c1ccc(CN2CCOc3c(N4CCNCC4)cccc32)cc1 [Compound 5, 4-(4-Benzyl-3,4-dihydro-2H-benzo[b][1,4]oxazin-8-yl)piperazin-1-ium Chloride]
[1]; 5-HT6R Ki
  Ki: 60 ± 7.5 nM

## O=c1[nH]c2c(N3CCN(CCO)CC3)cccc2n1Cc1ccccc1 [Compound 7, 1-Benzyl-4-(4-(2-hydroxyethyl)piperazin-1-yl)-1,3-dihydro-2H-benzo[d]imidazol-2-one]
[1]; read-out: 5-HT6R Ki
  Ki: 40 ± 3 nM

## O=c1oc2c(N3CCN(CCO)CC3)cccc2n1Cc1ccccc1 [Compound 8, 3-Benzyl-7-(4-(2-hydroxyethyl)piperazin-1-yl)benzo[d]oxazol-2(3H)-one]
[1]; read-out: 5-HT6R Ki
  Ki: 150 ± 7.6 nM

## O=C1COc2c(N3CCN(CCO)CC3)cccc2N1Cc1ccccc1 [Compound 9, 4-Benzyl-8-(4-(2-hydroxyethyl)piperazin-1-yl)-2H-benzo[b][1,4]oxazin-3(4H)-one]
[1]; read-out: 5-HT6R Ki
  Ki: 4 ± 0.4 nM

## OCCN1CCN(c2cccc3c2OCCN3Cc2ccccc2)CC1 [Compound 10, 2-(4-(4-Benzyl-3,4-dihydro-2H-benzo[b][1,4]oxazin-8-yl)piperazin-1-yl)ethan-1-ol]
[1]; read-out: 5-HT6R Ki
  Ki: 24 ± 2 nM

## NCCCC(=O)OCCN1CCN(c2cccc3c2[nH]c(=O)n3Cc2ccccc2)CC1 [Compound 17, 1-(2-((4-Ammoniobutanoyl)oxy)ethyl)-4-(1-benzyl-2-oxo-2,3-dihydro-1H-benzo[d]imidazol-4-yl)piperazin-1-ium Dichloride]
[2]
  Ki: 592 ± 52.5 nM
[1]; read-out: 5-HT6R Ki
  Ki: 57 ± 5.9 nM
[3]
  Kb: 193 ± 3.5 nM

## Cl.Cl.NCCCC(=O)OCCN1CCN(c2cccc3c2oc(=O)n3Cc2ccccc2)CC1 [Compound 18, 1-(2-((4-Ammoniobutanoyl)oxy)ethyl)-4-(3-benzyl-2-oxo-2,3-dihydrobenzo[d]oxazol-7-yl)piperazin-1-ium Dichloride]
[2]
  Ki: 229 ± 28 nM
[4]
  [%] of 10 μM GABA activity: 14.0% and 14.0 ± 2.6%
[1]; read-out: 5-HT6R Ki
  Ki: 130 ± 12 nM
[3]
  Kb: 245 ± 0.7 nM

## Cl.Cl.NCCCC(=O)OCCN1CCN(c2cccc3c2OCC(=O)N3Cc2ccccc2)CC1 [Compound 19, 1-(2-((4-Ammoniobutanoyl)oxy)ethyl)-4-(4-benzyl-3-oxo-3,4-dihydro-2H-benzo[b][1,4]oxazin-8-yl)piperazin-1-ium Dichloride]
[2]
  Ki: 247 ± 24.7 nM
[4]
  [%] of 10 μM GABA activity: 9.5% and 9.5 ± 3.5%
[1]; read-out: 5-HT6R Ki
  Ki: 25 ± 1 nM
[1]; ratio of Ki values
  fold higher 5-HT6 affinity compared to 18: 5 fold
[3]
  Kb: 7 ± 0.1 nM

## NCCCC(=O)OCCN1CCN(c2cccc3c2OCCN3Cc2ccccc2)CC1 [Compound 20, 1-(2-((4-Ammoniobutanoyl)oxy)ethyl)-4-(4-benzyl-3,4-dihydro-2H-benzo[b][1,4]oxazin-8-yl)piperazin-1-ium Dichloride]
[2]
  Ki: 184 ± 4 nM
[1]; read-out: 5-HT6R Ki
  Ki: 1260 ± 82 nM
[3]
  Kb: 1670 ± 1 nM

## Cc1ccc(Sc2ccccc2N2CCNCC2)c(C)c1 [vortioxetine, Vortioxetine, reference compound]
[5]; [7]
  climbing: had no impact
  prolongation of swimming time: 88.1%
  reduction of immobility time: 24.7%
[5]; subchronic, 8 mg/kg ip for 14 days, test 60 min after last injection
  decrease of immobility time vs vehicle-treated group: 19.5%
[6]
  X ambulation: 260.1
  Y ambulation: 265.9
  rearing: 50.6
  total distance traveled: 2753
